Patent EP1360961A1, “Use of antimicrobial peptides for potentiating the activity of antimicrobial agents” (AM-Pharma B.V., priority 2002, dated 2003)

How the values were obtained:
[1] = test system: fluconazole-resistant C. albicans; assay: In vitro assay for candidacidal activity of hLF-derived peptides and/or fluconazole (co-incubation, CFU count); format: cell-based; details: 1×10^6 CFU/ml, 2 h at 37°C; noncandidacidal peptide concentrations; fluconazole 100-200 µg/ml; Fig. 1
Protocol: • Figure 1 - Candidacidal activity of combinations of noncandidacidal concentrations of hLF(1-11), an N-terminal peptide of human lactoferrin and 200 µg/ml fluconazole (closed bars), 150 µg/ml fluconazole (black dotted bars), 100 µg/ml fluconazole (white dotted bars) or without this triazole (open bars). […] In short, 1×10^6 CFU fluconazole-resistant C. albicans/ml were incubated with combinations of hLF(1-11) and fluconazole for 2 h at 37°C and then the number of surviving Candida was determined microbiologically. […] In short, 1×10^6 CFU Candida/ml were preincubated for 5 min at 37°C with (8 µM) hLF(1-11) or (200 µg/ml) fluconazole, washed and then incubated for 2 h at 37°C with (200 µg/ml) fluconazole or (8 µM) hLF(1-11), respectively. As controls, Candida cells were incubated for 2 h at 37°C with (8 µM) hLF(1-11), (200 µg/ml) fluconazole, the combination of (8 µM) hLF(1-11) and (200 µg/ml) fluconazole or no agent. Results are means plus SD of at least three independent experiments.
Assay for candidacidal activity of hLF-derived peptides and fluconazole. […] After a 2 h incubation at 37°C with hLF peptides and/or fluconazole the number of viable blastoconidia was determined by plating serial dilutions of each sample on Sabouraud agar. Results are expressed as colony forming units (CFU) per ml.

[2] = test system: Fluconazole-resistant C. albicans strain Y01-19; assay: E-test for fluconazole resistance; format: cell-based; details: Candida albicans
Protocol: Fluconazole. Fluconazole (Pfizer Inc. New York, NY) was dissolved at a concentration of 1 mg/ml of dimethylsulfoxide (Fluka Chemie GmbH, Sigma-Aldrich Chemie BV, Zwijndrecht, The Netherlands) and stored at -20°C until use. From this stock solution appropriate concentrations were prepared in 10 mM of sodium phosphate buffer (pH 7.4), further referred to as NaPB. Source of C. albicans strain. Fluconazole-resistant C. albicans strain Y01-19 was purchased from Pfizer (Groton, Conn.). […] Fluconazole resistance (M.I.C.>256 µg/ml) was evaluated using the E-test (Oxoid Unipath Ltd., Basingstoke, UK). Yeasts were cultured overnight in Sabouraud broth (Oxoid) at 37°C and sub-cultured for 2,5 h on a rotary wheel at 37°C.

**Q.** Which candidacidal activity [1] does the source give for `OC(Cn1cncn1)(Cn1cncn1)c1ccc(F)cc1F` [Fluconazole] here?
**A.** without effect

**Q.** And the MIC [2]?
**A.** > 256 µg/mL
